For one experiment, the target named is GSPT1 (Homo sapiens, UniProt P15170+Q96SW2). In words: HiBiT degradation assay, GSPT1, Procedure A. Format: cell-based. Set-up: HiBit-GSPT1 KI HEK293(LgBit) Cells; host or cells: HEK293(LgBit) knock-in cells. The method, boiled down:
(§1)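 DC50 and Ymin (% remaining) were derived by four-parameter fitting of luminescence data. The data come from a six-hour, 37° C compound exposure of cells in DMEM/10% FBS over a ten-point range, 10 μM to 0.005 μM, followed by Nano-Glo HiBiT lytic detection.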

In a further experiment the target is T1, CK1α (Homo sapiens, UniProt P48729+Q96SW2).
T1 construct: CSNK1A1-HiBit KI HEK293(LgBit) Cells; host or cells: HEK293(LgBit) knock-in cells
T1 sequence (P48729 whole entry): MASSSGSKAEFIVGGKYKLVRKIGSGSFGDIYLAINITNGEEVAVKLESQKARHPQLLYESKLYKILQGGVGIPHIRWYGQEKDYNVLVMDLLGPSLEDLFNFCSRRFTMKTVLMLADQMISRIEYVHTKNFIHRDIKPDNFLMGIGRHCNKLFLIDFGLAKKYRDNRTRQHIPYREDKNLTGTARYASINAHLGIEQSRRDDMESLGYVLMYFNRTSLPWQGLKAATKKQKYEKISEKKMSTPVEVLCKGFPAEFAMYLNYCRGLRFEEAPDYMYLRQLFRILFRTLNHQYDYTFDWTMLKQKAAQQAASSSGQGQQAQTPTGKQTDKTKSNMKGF
T1 sequence (Q96SW2 whole entry): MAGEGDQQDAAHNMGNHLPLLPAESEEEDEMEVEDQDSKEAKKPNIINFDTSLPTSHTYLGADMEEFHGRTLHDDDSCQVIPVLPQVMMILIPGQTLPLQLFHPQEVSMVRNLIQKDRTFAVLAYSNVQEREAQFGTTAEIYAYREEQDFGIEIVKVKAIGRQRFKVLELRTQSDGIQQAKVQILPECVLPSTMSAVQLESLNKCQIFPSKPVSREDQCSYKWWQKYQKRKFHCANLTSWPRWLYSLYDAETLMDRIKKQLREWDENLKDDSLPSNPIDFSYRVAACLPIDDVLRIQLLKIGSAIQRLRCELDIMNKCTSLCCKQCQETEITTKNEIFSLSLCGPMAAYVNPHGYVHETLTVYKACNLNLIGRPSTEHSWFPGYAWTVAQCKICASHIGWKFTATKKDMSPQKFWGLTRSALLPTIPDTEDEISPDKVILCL
T1 sequence (Q16531 whole entry partner): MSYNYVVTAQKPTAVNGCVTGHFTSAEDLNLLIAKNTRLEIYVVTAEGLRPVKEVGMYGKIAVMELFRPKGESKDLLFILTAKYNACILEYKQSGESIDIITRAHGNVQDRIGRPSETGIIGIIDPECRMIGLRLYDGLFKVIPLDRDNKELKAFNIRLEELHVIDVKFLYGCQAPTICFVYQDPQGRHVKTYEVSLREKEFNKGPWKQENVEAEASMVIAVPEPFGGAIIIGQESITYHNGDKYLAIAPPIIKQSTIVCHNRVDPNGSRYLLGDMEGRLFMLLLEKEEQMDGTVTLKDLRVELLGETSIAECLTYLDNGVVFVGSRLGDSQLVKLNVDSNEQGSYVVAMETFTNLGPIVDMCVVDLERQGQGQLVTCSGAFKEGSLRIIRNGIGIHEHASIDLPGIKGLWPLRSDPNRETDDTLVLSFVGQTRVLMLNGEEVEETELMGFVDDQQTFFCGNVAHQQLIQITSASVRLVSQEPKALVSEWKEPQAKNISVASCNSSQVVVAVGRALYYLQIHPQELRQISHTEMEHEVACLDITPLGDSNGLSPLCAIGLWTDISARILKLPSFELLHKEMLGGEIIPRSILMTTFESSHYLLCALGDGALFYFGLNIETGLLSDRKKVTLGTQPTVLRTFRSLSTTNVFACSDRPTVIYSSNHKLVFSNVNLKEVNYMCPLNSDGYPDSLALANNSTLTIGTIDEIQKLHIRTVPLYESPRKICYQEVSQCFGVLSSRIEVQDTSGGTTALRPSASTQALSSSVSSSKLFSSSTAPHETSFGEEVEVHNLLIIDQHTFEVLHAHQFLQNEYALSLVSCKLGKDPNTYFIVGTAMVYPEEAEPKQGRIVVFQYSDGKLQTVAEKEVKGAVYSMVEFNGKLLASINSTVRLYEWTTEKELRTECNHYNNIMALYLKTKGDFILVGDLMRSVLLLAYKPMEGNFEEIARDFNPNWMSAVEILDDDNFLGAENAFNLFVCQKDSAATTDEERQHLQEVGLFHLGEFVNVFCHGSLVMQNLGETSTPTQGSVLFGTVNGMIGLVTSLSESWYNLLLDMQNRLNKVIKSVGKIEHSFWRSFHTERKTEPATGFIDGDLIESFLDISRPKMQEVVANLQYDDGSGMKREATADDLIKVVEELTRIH
In words: HiBiT degradation assay, CK1α, Procedure A. The format is cell-based. A digest of the protocol: as §1

As usually defined, the DC50 is the midpoint of the concentration-degradation curve.

Sequence of GSPT1 (P15170 whole entry): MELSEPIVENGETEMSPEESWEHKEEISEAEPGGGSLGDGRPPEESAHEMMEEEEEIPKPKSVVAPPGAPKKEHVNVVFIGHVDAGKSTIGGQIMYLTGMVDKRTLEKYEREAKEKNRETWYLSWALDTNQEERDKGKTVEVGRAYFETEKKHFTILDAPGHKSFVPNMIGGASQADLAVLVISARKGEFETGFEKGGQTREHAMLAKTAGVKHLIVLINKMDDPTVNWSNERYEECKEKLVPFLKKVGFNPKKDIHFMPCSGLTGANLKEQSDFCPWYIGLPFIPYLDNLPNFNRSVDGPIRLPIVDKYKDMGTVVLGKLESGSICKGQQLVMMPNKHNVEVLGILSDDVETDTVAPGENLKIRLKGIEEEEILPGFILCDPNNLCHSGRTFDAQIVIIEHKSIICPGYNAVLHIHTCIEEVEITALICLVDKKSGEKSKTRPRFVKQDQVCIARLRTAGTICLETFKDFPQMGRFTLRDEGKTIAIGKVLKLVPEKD
Sequence of GSPT1 (Q96SW2 whole entry): as the sequence (Q96SW2 whole entry) above
Sequence of GSPT1 (Q16531 whole entry partner): as the sequence (Q16531 whole entry partner) above

For `Cn1ncc(-c2ccc3c(c2)CN(C2CCC(=O)NC2=O)C3=O)c1-c1ccc(F)cc1F` (stereo not drawn) [Example 130], on GSPT1 (six hours incubation), the DC50 is not below 25 nM and the “GSPT1 Ymin” value was “F (F = >75-100% remaining)”. In addition, on CK1α (six hours incubation), the “CK1α Ymin” value is recorded as “E (E = >25-75% remaining)” and the DC50 was less than 25 nM.
On to `Cc1ncccc1-c1c(-c2ccc3c(c2)CN(C2CCC(=O)NC2=O)C3=O)ncn1C` (stereo not drawn) [Example 507], for which, at GSPT1 (six hours), the DC50 is not below 25 nM and the “GSPT1 Ymin” value was “F (F = >75-100% remaining)”. At CK1α (six hours), the “CK1α Ymin” value was “E (E = >25-75% remaining)” and the DC50 was less than 25 nM.
In the case of `Cn1ncc(-c2ccc3c(c2)CN(C2CCC(=O)NC2=O)C3=O)c1-c1ccc(-n2cccn2)cc1` (stereo not drawn) [Example 150], on GSPT1 (six hours incubation), the DC50 was not below 25 nM and the “GSPT1 Ymin” value was “F (F = >75-100% remaining)”. For the same compound, at CK1α (six hours incubation), the “CK1α Ymin” value was “D (D = >10- 25% remaining)” and the half-maximal degradation concentration (DC50) was less than 25 nM.
Taken in the same sequence, the figures for `Cn1ncc(-c2ccc3c(c2)CN(C2CCC(=O)NC2=O)C3=O)c1-c1cccc(C(N)=O)c1` (stereo not drawn) [Example 138] were less than 25 nM, “F (F = >75-100% remaining)”, “E (E = >25-75% remaining)” and not below 25 nM.
As for `Cc1ccc(F)c(-c2nc(-c3ccc4c(c3)CN(C3CCC(=O)NC3=O)C4=O)cn2C)c1` (stereo not drawn) [Example 561], at GSPT1 (six hours), the DC50 was less than 25 nM and the “GSPT1 Ymin” value is given as “F (F = >75-100% remaining)”. Also, on CK1α (six hours), the “CK1α Ymin” value is “C (C = 0-10% remaining)” and the DC50 is less than 25 nM.
`Cc1cccc(-c2c(-c3ccc4c(c3)CN(C3CCC(=O)NC3=O)C4=O)ncn2C)c1C` (stereo not drawn) [Example 167]: on GSPT1 (six hours incubation), the DC50 is less than 25 nM and the “GSPT1 Ymin” value is given as “F (F = >75-100% remaining)”. In addition, at CK1α (six hours incubation), the “CK1α Ymin” value is on record as “E (E = >25-75% remaining)” and the DC50 was less than 25 nM.
On to `COc1ccc(-c2c(-c3ccc4c(c3)CN(C3CCC(=O)NC3=O)C4=O)cnn2C)cc1O` (stereo not drawn) [Example 222], for which, at GSPT1 (six hours incubation), the DC50 was not below 25 nM and the “GSPT1 Ymin” value is recorded as “F (F = >75-100% remaining)”. Further, at CK1α (six hours incubation), the “CK1α Ymin” value is on record as “C (C = 0-10% remaining)” and the 50% degradation concentration (DC50) is less than 25 nM.
For the compound `Cn1cnc(-c2ccc3c(c2)CN(C2CCC(=O)NC2=O)C3=O)c1-c1ccc(S(C)(=O)=O)cc1` (stereo not drawn) [Example 306], on GSPT1 (six hours incubation), the half-maximal degradation concentration (DC50) is not below 25 nM and the “GSPT1 Ymin” value was “E (E = >25-75% remaining)”. In addition, on CK1α (six hours incubation), the “CK1α Ymin” value is listed as “E (E = >25-75% remaining)” and the DC50 was not below 25 nM.
As to `COc1ccc(Cl)c(-c2c(-c3ccc4c(c3)CN(C3CCC(=O)NC3=O)C4=O)cnn2C)c1` (stereo not drawn) [Example 82], on GSPT1 (six hours incubation), the half-maximal degradation concentration (DC50) is not below 25 nM and the “GSPT1 Ymin” value was “F (F = >75-100% remaining)”. At CK1α (six hours incubation), the “CK1α Ymin” value is “E (E = >25-75% remaining)” and the DC50 was less than 25 nM.
The corresponding values for `Cn1cc(-c2ccc3c(c2)CN(C2CCC(=O)NC2=O)C3=O)nc1-c1ccc(C(F)(F)F)cc1` (stereo not drawn) [Example 209, 3-(5-(1-methyl-2-(4-(trifluoromethyl)phenyl)-1H-imidazol-4-yl)-1-oxoisoindolin-2-yl)piperidine-2,6-dione] are not below 25 nM, “F (F = >75-100% remaining)”, “C (C = 0-10% remaining)” and less than 25 nM.
Taken in the same sequence, the figures for `Cn1ncc(-c2ccc3c(c2)CN(C2CCC(=O)NC2=O)C3=O)c1-c1cccc(CN2CCCC2)c1` (stereo not drawn) [Example 158] were not below 25 nM, “F (F = >75-100% remaining)”, “E (E = >25-75% remaining)” and not below 25 nM.
In the case of `Cn1cnc(-c2ccc3c(c2)CN(C2CCC(=O)NC2=O)C3=O)c1-c1cccc(C#N)n1` (stereo not drawn) [Example 399], on GSPT1 (six hours), the DC50 was not below 25 nM and the “GSPT1 Ymin” value is reported as “F (F = >75-100% remaining)”. In addition, on CK1α (six hours), the “CK1α Ymin” value is “D (D = >10- 25% remaining)” and the half-maximal degradation concentration (DC50) was less than 25 nM.
For `Cn1cnc(-c2ccc3c(c2)CN(C2CCC(=O)NC2=O)C3=O)c1-c1ccc(Cl)cc1F` (stereo not drawn) [Example 258], on GSPT1 (six hours incubation), the DC50 is not below 25 nM and the “GSPT1 Ymin” value is on record as “E (E = >25-75% remaining)”. Also, on CK1α (six hours incubation), the “CK1α Ymin” value is “D (D = >10- 25% remaining)” and the DC50 is less than 25 nM.
Take `Cc1ccc(F)cc1-c1c(-c2ccc3c(c2)CN(C2CCC(=O)NC2=O)C3=O)ncn1C` (stereo not drawn) [Example 237]: at GSPT1 (six hours incubation), the DC50 is not below 25 nM and the “GSPT1 Ymin” value is reported as “F (F = >75-100% remaining)”. For the same compound, at CK1α (six hours incubation), the “CK1α Ymin” value is recorded as “E (E = >25-75% remaining)” and the DC50 was less than 25 nM.
Turning to `Cn1cnc(-c2ccc3c(c2)CN(C2CCC(=O)NC2=O)C3=O)c1-c1cccs1` (stereo not drawn) [Example 506], on GSPT1 (six hours), the DC50 was less than 25 nM and the “GSPT1 Ymin” value was “E (E = >25-75% remaining)”. Also, on CK1α (six hours), the “CK1α Ymin” value is “C (C = 0-10% remaining)” and the 50% degradation concentration (DC50) is less than 25 nM.
As to `Cn1cnc(-c2ccc3c(c2)CN(C2CCC(=O)NC2=O)C3=O)c1-c1ccc2ncsc2c1` (stereo not drawn) [Example 502], on GSPT1 (six hours), the DC50 is less than 25 nM and the “GSPT1 Ymin” value is “E (E = >25-75% remaining)”. Also, on CK1α (six hours), the “CK1α Ymin” value is reported as “C (C = 0-10% remaining)” and the 50% degradation concentration (DC50) was less than 25 nM.
In the case of `Cn1c(C2CCCCC2)nc(-c2ccc3c(c2)CN(C2CCC(=O)NC2=O)C3=O)c1-c1ccccc1` (stereo not drawn) [Example 49, 3-(5-(2-Cyclohexyl-1-methyl-5-phenyl-1H-imidazol-4-yl)-1-oxoisoindolin-2-yl)piperidine-2,6-dione], on GSPT1 (six hours incubation), the 50% degradation concentration (DC50) was less than 25 nM and the “GSPT1 Ymin” value was “F (F = >75-100% remaining)”. Further, at CK1α (six hours incubation), the “CK1α Ymin” value is listed as “C (C = 0-10% remaining)” and the half-maximal degradation concentration (DC50) was less than 25 nM.
With `Cc1cn(-c2ccc3c(c2)CN(C2CCC(=O)NC2=O)C3=O)nc1-c1ccccc1` (stereo not drawn) [Example 618, 3-(5-(4-methyl-3-phenyl-1H-pyrazol-1-yl)-1-oxoisoindolin-2-yl)piperidine-2,6-dione], at GSPT1 (six hours), the 50% degradation concentration (DC50) was not below 25 nM and the “GSPT1 Ymin” value was “F (F = >75-100% remaining)”. On CK1α (six hours), the “CK1α Ymin” value is listed as “D (D = >10- 25% remaining)” and the DC50 is less than 25 nM.
With `O=C1CCC(N2Cc3cc(-c4c[nH]nc4-c4ccncc4)ccc3C2=O)C(=O)N1` (stereo not drawn) [Example 38, 3-(1-Oxo-5-(3-(pyridin-4-yl)-1H-pyrazol-4-yl)isoindolin-2-yl)piperidine-2,6-dione], at GSPT1 (six hours incubation), the 50% degradation concentration (DC50) is not below 25 nM and the “GSPT1 Ymin” value is listed as “F (F = >75-100% remaining)”. Besides, at CK1α (six hours incubation), the “CK1α Ymin” value is recorded as “E (E = >25-75% remaining)” and the DC50 is not below 25 nM.
In the case of `O=C1CCC(N2Cc3cc(-c4cnn(C(F)F)c4-c4ccccc4)ccc3C2=O)C(=O)N1` (stereo not drawn) [Example 27, 3-(5-(1-(difluoromethyl)-5-phenyl-1H-pyrazol-4-yl)-1-oxoisoindolin-2-yl)piperidine-2,6-dione], at GSPT1 (six hours incubation), the DC50 was not below 25 nM and the “GSPT1 Ymin” value is given as “F (F = >75-100% remaining)”. In addition, on CK1α (six hours incubation), the “CK1α Ymin” value is given as “D (D = >10- 25% remaining)” and the DC50 was less than 25 nM.
`Cc1cc(-c2c(-c3ccc4c(c3)CN(C3CCC(=O)NC3=O)C4=O)ncn2C)ccn1` (stereo not drawn) [Example 398]: at GSPT1 (six hours), the DC50 is less than 25 nM and the “GSPT1 Ymin” value is “F (F = >75-100% remaining)”. At CK1α (six hours), the “CK1α Ymin” value is “D (D = >10- 25% remaining)” and the DC50 is less than 25 nM.
`Cc1c(-c2ccc3c(c2)CN(C2CCC(=O)NC2=O)C3=O)nc(-c2ccccc2)n1C` (stereo not drawn) [Example 338, 3-(5-(1,5-dimethyl-2-phenyl-1H-imidazol-4-yl)-1-oxoisoindolin-2-yl)piperidine-2,6-dione]: at GSPT1 (six hours incubation), the DC50 is not below 25 nM and the “GSPT1 Ymin” value was “F (F = >75-100% remaining)”. For the same compound, on CK1α (six hours incubation), the “CK1α Ymin” value is given as “C (C = 0-10% remaining)” and the DC50 was less than 25 nM.
With `COc1ccc(-c2nc(-c3ccc4c(c3)CN(C3CCC(=O)NC3=O)C4=O)cn2C)cc1C` (stereo not drawn) [Example 565], on GSPT1 (six hours), the half-maximal degradation concentration (DC50) was not below 25 nM and the “GSPT1 Ymin” value is recorded as “F (F = >75-100% remaining)”. Further, at CK1α (six hours), the “CK1α Ymin” value is “C (C = 0-10% remaining)” and the DC50 was less than 25 nM.
On to `COc1ccc(-c2nn(C(F)F)cc2-c2ccc3c(c2)CN(C2CCC(=O)NC2=O)C3=O)c(Cl)c1` (stereo not drawn) [Example 425, 3-(5-(3-(2-chloro-4-methoxyphenyl)-1-(difluoromethyl)-1H-pyrazol-4-yl)-1-oxoisoindolin-2-yl)piperidine-2,6-dione], for which the half-maximal degradation concentration (DC50) at GSPT1 (six hours) is not below 25 nM. For the same compound, at CK1α (six hours), the “CK1α Ymin” value was “D (D = >10- 25% remaining)” and the 50% degradation concentration (DC50) is less than 25 nM.
In the case of `Cc1[nH]nc(-c2ccc3c(c2)CN(C2CCC(=O)NC2=O)C3=O)c1-c1ccccc1` (stereo not drawn) [Example 11], on GSPT1 (six hours incubation), the 50% degradation concentration (DC50) is less than 25 nM and the “GSPT1 Ymin” value is reported as “D (D = >10- 25% remaining)”. Further, at CK1α (six hours incubation), the “CK1α Ymin” value was “C (C = 0-10% remaining)” and the DC50 is less than 25 nM.
With `Cn1ncc(-c2ccc3c(c2)CN(C2CCC(=O)NC2=O)C3=O)c1-c1ccc(=O)n(C)c1` (stereo not drawn) [Example 459], at GSPT1 (six hours), the 50% degradation concentration (DC50) is not below 25 nM and the “GSPT1 Ymin” value is on record as “F (F = >75-100% remaining)”. In addition, on CK1α (six hours), the “CK1α Ymin” value was “E (E = >25-75% remaining)” and the half-maximal degradation concentration (DC50) is less than 25 nM.
For `Cn1cnc(-c2ccc3c(c2)CN(C2CCC(=O)NC2=O)C3=O)c1-c1ccc(S(=O)(=O)NC2CCCCC2)cc1` (stereo not drawn) [Example 448], at GSPT1 (six hours), the half-maximal degradation concentration (DC50) is not below 25 nM and the “GSPT1 Ymin” value is “F (F = >75-100% remaining)”. At CK1α (six hours), the “CK1α Ymin” value was “D (D = >10- 25% remaining)” and the DC50 is not below 25 nM.
For `Cn1ncc(-c2ccc3c(c2)CN(C2CCC(=O)NC2=O)C3=O)c1-c1cccnc1` (stereo not drawn) [Example 360], at GSPT1 (six hours incubation), the half-maximal degradation concentration (DC50) is not below 25 nM and the “GSPT1 Ymin” value was “F (F = >75-100% remaining)”. At CK1α (six hours incubation), the “CK1α Ymin” value is on record as “D (D = >10- 25% remaining)” and the DC50 is less than 25 nM.

These data come from patent US20240158370A1, “CK1 alpha AND DUAL CK1 alpha / GSPT1 DEGRADING COMPOUNDS” (Innovo Therapeutics, Inc., priority 2022, published 2024).
